Target: bovine cardiac myofibrils (full-length cardiac myosin ATPase in the native sarcomere) (Bos taurus (Bovine), UniProt Q9BE39)
Experiment: Skinned bovine cardiac myofibril ATPase assay (PK/LDH-coupled)
Type: biochemical
Conditions: Ca2+ activating to 75% of maximal rate; for CDMF75 IC15: concentration giving 15% inhibition; for IC50: read-out: CDMF75 IC50
Outline: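 Inhibition of steady-state ATPase read at 340 nm through a PK/LDH-coupled NADH system (0.5 mM NADH, 1.5 mM PEP). Detergent-skinned bovine cardiac myofibrils, 1 mg/mL, were tested at pH 6.8 in PIPES/MgCl2 with 50 μM ATP and calcium adjusted to give pCa50 or pCa75 activation.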

bovine cardiac myofibrils (full-length cardiac myosin ATPase in the native sarcomere), sequence (Q9BE39 whole entry): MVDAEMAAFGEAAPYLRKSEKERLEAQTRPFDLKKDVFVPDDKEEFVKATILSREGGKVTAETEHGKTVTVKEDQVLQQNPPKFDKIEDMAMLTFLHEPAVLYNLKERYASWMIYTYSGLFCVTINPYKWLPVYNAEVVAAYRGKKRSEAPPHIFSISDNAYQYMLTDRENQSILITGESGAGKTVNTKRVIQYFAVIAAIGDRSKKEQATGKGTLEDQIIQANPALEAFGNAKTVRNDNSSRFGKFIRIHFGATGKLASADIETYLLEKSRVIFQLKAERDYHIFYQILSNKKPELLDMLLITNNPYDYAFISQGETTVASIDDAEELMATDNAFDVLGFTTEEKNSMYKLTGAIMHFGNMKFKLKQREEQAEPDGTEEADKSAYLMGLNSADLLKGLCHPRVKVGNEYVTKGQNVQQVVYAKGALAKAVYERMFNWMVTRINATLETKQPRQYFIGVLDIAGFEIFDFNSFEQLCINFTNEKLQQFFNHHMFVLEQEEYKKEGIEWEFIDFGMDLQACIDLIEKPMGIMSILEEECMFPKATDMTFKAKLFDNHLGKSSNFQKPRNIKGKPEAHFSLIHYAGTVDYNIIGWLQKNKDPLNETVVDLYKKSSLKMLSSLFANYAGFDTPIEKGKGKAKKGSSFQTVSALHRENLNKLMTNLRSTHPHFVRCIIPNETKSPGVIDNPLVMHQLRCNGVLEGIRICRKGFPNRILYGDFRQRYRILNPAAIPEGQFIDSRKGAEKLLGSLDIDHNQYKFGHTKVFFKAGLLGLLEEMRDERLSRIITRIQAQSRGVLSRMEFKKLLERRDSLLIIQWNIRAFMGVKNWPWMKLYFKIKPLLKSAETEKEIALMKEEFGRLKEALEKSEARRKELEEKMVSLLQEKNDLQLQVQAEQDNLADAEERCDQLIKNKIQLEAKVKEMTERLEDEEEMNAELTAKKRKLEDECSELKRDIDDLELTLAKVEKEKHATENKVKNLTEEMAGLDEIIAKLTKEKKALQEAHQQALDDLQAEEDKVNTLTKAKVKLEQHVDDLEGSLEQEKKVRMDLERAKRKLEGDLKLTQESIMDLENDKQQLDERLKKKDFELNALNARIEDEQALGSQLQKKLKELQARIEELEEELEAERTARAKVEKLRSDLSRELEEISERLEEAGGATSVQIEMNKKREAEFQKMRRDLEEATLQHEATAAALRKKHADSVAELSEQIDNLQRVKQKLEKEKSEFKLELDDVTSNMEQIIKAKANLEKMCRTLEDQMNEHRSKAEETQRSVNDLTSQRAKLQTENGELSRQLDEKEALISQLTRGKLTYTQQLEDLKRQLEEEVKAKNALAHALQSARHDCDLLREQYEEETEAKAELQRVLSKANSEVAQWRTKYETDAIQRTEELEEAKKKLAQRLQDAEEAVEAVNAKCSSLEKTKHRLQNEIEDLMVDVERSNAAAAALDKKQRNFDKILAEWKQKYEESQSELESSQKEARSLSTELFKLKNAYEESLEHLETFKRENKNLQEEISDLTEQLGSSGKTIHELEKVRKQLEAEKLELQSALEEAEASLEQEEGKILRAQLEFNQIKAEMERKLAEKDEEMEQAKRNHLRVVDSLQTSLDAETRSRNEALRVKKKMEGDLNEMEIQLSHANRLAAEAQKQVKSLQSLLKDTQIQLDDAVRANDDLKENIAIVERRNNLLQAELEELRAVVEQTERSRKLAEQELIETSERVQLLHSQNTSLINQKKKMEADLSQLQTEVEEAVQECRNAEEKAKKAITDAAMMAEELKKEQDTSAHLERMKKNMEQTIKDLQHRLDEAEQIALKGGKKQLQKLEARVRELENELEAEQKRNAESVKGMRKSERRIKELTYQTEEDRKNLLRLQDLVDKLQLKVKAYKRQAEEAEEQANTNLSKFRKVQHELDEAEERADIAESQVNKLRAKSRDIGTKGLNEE
bovine cardiac myofibrils (full-length cardiac myosin ATPase in the native sarcomere), sequence (P85100 whole entry partner): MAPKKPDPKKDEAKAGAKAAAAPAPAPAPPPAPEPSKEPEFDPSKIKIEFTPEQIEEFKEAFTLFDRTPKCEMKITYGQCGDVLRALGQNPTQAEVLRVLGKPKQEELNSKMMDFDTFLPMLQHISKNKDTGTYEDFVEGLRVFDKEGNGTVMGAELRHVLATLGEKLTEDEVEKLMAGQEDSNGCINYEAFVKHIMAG
bovine cardiac myofibrils (full-length cardiac myosin ATPase in the native sarcomere), sequence (Q3SZE5 whole entry partner): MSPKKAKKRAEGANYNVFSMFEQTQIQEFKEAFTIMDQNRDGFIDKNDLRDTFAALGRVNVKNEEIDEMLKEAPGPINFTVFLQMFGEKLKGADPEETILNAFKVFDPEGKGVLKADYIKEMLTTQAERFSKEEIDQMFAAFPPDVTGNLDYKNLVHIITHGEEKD

CDMF75 IC15 [µM] | IC50 [µM] | SMILES
0.3 | 0.9 | Cc1ncoc1C(=O)N[C@@H]1CCc2cc(-c3noc(C(F)F)n3)ccc21 [Compound 448, (R)-N-(5-(5-(difluoromethyl)-1,2,4-oxadiazol-3-yl)-2,3-dihydro-1H-inden-1-yl)-4-methyloxazole-5-carboxamide]
0.5 | 1.5 | Cc1nc(-c2ccc3c(c2)CC[C@H]3NC(=O)c2ocnc2C)no1 [Compound 449, (R)-4-methyl-N-(5-(5-methyl-1,2,4-oxadiazol-3-yl)-2,3-dihydro-1H-inden-1-yl)oxazole-5-carboxamide]
3.2 | 12.4 | CC(=O)N[C@@H]1COc2cc(-c3noc(C)n3)ccc21 [Compound 450, (S)-N-(6-(5-methyl-1,2,4-oxadiazol-3-yl)-2,3-dihydrobenzofuran-3-yl)acetamide]
2.3 | 7.7 | Cn1nccc1C(=O)N[C@@H]1CCc2cc(C#CC3CC3)ccc21 [Compound 451, (R)-N-(5-(cyclopropylethynyl)-2,3-dihydro-1H-inden-1-yl)-1-methyl-1H-pyrazole-5-carboxamide]
4.3 | 20.3 | CC#Cc1ccc2c(c1)CC[C@H]2NC(=O)c1ccnn1C [Compound 452, (R)-1-methyl-N-(5-(prop-1-yn-1-yl)-2,3-dihydro-1H-inden-1-yl)-1H-pyrazole-5-carboxamide]
0.2 | 0.7 | Cc1ncoc1C(=O)N[C@@H]1COc2cc(-c3noc(C(F)F)n3)ccc21 [Compound 453, (S)-N-(6-(5-(difluoromethyl)-1,2,4-oxadiazol-3-yl)-2,3-dihydrobenzofuran-3-yl)-4-methyloxazole-5-carboxamide]
0.5 | 1.8 | Cc1nc(-c2ccc3c(c2)OC[C@H]3NC(=O)c2ocnc2C)no1 [Compound 454, (S)-4-methyl-N-(6-(5-methyl-1,2,4-oxadiazol-3-yl)-2,3-dihydrobenzofuran-3-yl)oxazole-5-carboxamide]
0.2 | 0.7 | CCc1nc(-c2ccc3c(c2)OC[C@H]3NC(=O)c2ocnc2C)no1 [Compound 455, (S)-N-(6-(5-ethyl-1,2,4-oxadiazol-3-yl)-2,3-dihydrobenzofuran-3-yl)-4-methyloxazole-5-carboxamide]
0.3 | 1.1 | Cc1ncoc1C(=O)N[C@@H]1COc2cc(-c3noc(C4CC4)n3)ccc21 [Compound 456, (S)-N-(6-(5-cyclopropyl-1,2,4-oxadiazol-3-yl)-2,3-dihydrobenzofuran-3-yl)-4-methyloxazole-5-carboxamide]
1.2 | 5.3 | CC(=O)N[C@@H]1COc2cc(-c3noc(C4CC4)n3)ccc21 [Compound 457, (S)-N-(6-(5-cyclopropyl-1,2,4-oxadiazol-3-yl)-2,3-dihydrobenzofuran-3-yl)acetamide]
2.0 | 9.2 | CC(=O)N[C@@H]1COc2cc(-c3noc(C4CCC4)n3)ccc21 [Compound 458, (S)-N-(6-(5-cyclobutyl-1,2,4-oxadiazol-3-yl)-2,3-dihydrobenzofuran-3-yl)acetamide]
0.4 | 1.2 | Cn1nccc1C(=O)N[C@@H]1CCc2cc(-c3noc(C4(C)CC4)n3)ccc21 [Compound 459, (R)-1-methyl-N-(5-(5-(1-methylcyclopropyl)-1,2,4-oxadiazol-3-yl)-2,3-dihydro-1H-inden-1-yl)-1H-pyrazole-5-carboxamide]
1.3 | 5.5 | Cn1nccc1C(=O)N[C@@H]1CCc2cc(-c3noc(C4CC4(C)C)n3)ccc21 (stereo partly drawn) [Compound 460, N-((1R)-5-(5-(2,2-dimethylcyclopropyl)-1,2,4-oxadiazol-3-yl)-2,3-dihydro-1H-inden-1-yl)-1-methyl-1H-pyrazole-5-carboxamide]
1.3 | 6.5 | CC(=O)N[C@@H]1COc2cc(-c3noc(C4(C)CC4)n3)ccc21 [Compound 461, (S)-N-(6-(5-(1-methylcyclopropyl)-1,2,4-oxadiazol-3-yl)-2,3-dihydrobenzofuran-3-yl)acetamide]
0.4 | 1.4 | Cc1ncoc1C(=O)N[C@@H]1COc2cc(-c3noc(C4(C)CC4)n3)ccc21 [Compound 462, (S)-4-methyl-N-(6-(5-(1-methylcyclopropyl)-1,2,4-oxadiazol-3-yl)-2,3-dihydrobenzofuran-3-yl)oxazole-5-carboxamide]
0.7 | 2.4 | Cc1ncc(C(=O)N[C@@H]2COc3cc(-c4noc(C5CC5)n4)ccc32)o1 [Compound 463, (S)-N-(6-(5-cyclopropyl-1,2,4-oxadiazol-3-yl)-2,3-dihydrobenzofuran-3-yl)-2-methyloxazole-5-carboxamide]

CDMF75 IC15 [µM] | IC50 [µM] | SMILES
0.4 | 1.4 | CCc1nc(-c2ccc3c(c2)OC[C@H]3NC(=O)c2cnc(C)o2)no1 [Compound 464, (S)-N-(6-(5-ethyl-1,2,4-oxadiazol-3-yl)-2,3-dihydrobenzofuran-3-yl)-2-methyloxazole-5-carboxamide]
0.7 | 2.6 | Cc1ncc(C(=O)N[C@@H]2CCc3cc(-c4noc(C5(C)CC5)n4)ccc32)o1 [Compound 465, (R)-2-methyl-N-(5-(5-(1-methylcyclopropyl)-1,2,4-oxadiazol-3-yl)-2,3-dihydro-1H-inden-1-yl)oxazole-5-carboxamide]
0.8 | 2.9 | Cc1ncc(C(=O)N[C@@H]2COc3cc(-c4noc(C5(C)CC5)n4)ccc32)o1 [Compound 466, (S)-2-methyl-N-(6-(5-(1-methylcyclopropyl)-1,2,4-oxadiazol-3-yl)-2,3-dihydrobenzofuran-3-yl)oxazole-5-carboxamide]
2.1 | 8.4 | CCc1nc(-c2ccc3c(c2)CC[C@H]3NC(=O)c2coc(COC)n2)no1 [Compound 467, (R)-N-(5-(5-ethyl-1,2,4-oxadiazol-3-yl)-2,3-dihydro-1H-inden-1-yl)-2-(methoxymethyl)oxazole-4-carboxamide]
6.6 | 39.2 | CCc1nc(-c2ccc3c(c2)CC[C@H]3NC(=O)c2coc(CS(C)(=O)=O)n2)no1 [Compound 468, (R)-N-(5-(5-ethyl-1,2,4-oxadiazol-3-yl)-2,3-dihydro-1H-inden-1-yl)-2-((methylsulfonyl)methyl)oxazole-4-carboxamide]
0.3 | 1.1 | CCc1nc(-c2ccc3c(c2)CC[C@H]3NC(=O)c2cn[nH]c2)no1 [Compound 469, (R)-N-(5-(5-ethyl-1,2,4-oxadiazol-3-yl)-2,3-dihydro-1H-inden-1-yl)-1H-pyrazole-4-carboxamide]
4.4 | 16.8 | CCc1nc(-c2ccc3c(c2)CC[C@H]3NC(=O)c2cnn(C3COC3)c2)no1 [Compound 470, (R)-N-(5-(5-ethyl-1,2,4-oxadiazol-3-yl)-2,3-dihydro-1H-inden-1-yl)-1-(oxetan-3-yl)-1H-pyrazole-4-carboxamide]
0.8 | 3.1 | CCc1nc(-c2ccc3c(c2)CC[C@H]3NC(=O)c2cnn(CCOC)c2)no1 [Compound 472, (R)-N-(5-(5-ethyl-1,2,4-oxadiazol-3-yl)-2,3-dihydro-1H-inden-1-yl)-1-(2-methoxyethyl)-1H-pyrazole-4-carboxamide]
1.1 | 3.8 | CCc1nc(-c2ccc3c(c2)CC[C@H]3NC(=O)c2cnn(CC(=O)OC)c2)no1 [Compound 473, methyl (R)-2-(4-((5-(5-ethyl-1,2,4-oxadiazol-3-yl)-2,3-dihydro-1H-inden-1-yl)carbamoyl)-1H-pyrazol-1-yl)acetate]
0.9 | 3.8 | CCc1nc(-c2ccc3c(c2)CC[C@H]3NC(=O)c2cnn(CC(N)=O)c2)no1 [Compound 475, (R)-1-(2-amino-2-oxoethyl)-N-(5-(5-ethyl-1,2,4-oxadiazol-3-yl)-2,3-dihydro-1H-inden-1-yl)-1H-pyrazole-4-carboxamide]
4.2 | 19.5 | CCc1nc(-c2ccc3c(c2)CC[C@H]3NC(=O)c2cnn(CC(C)(C)O)c2)no1 [Compound 476, (R)-N-(5-(5-ethyl-1,2,4-oxadiazol-3-yl)-2,3-dihydro-1H-inden-1-yl)-1-(2-hydroxy-2-methylpropyl)-1H-pyrazole-4-carboxamide]
8.5 | 39.2 | CCc1nc(-c2ccc3c(c2)CC[C@H]3NC(=O)c2cnn(C3CN(C(C)=O)C3)c2)no1 [Compound 477, (R)-1-(1-acetylazetidin-3-yl)-N-(5-(5-ethyl-1,2,4-oxadiazol-3-yl)-2,3-dihydro-1H-inden-1-yl)-1H-pyrazole-4-carboxamide]
2.9 | 11.9 | CCc1nc(-c2ccc3c(c2)CC[C@H]3NC(=O)c2cnn(C3CN(S(C)(=O)=O)C3)c2)no1 [Compound 478, (R)-N-(5-(5-ethyl-1,2,4-oxadiazol-3-yl)-2,3-dihydro-1H-inden-1-yl)-1-(1-(methylsulfonyl)azetidin-3-yl)-1H-pyrazole-4-carboxamide]
4.5 | 23.1 | CCc1nc(-c2ccc3c(c2)CC[C@H]3NC(=O)c2cnn(C3CN(C(=O)NC)C3)c2)no1 [Compound 479, (R)-N-(5-(5-ethyl-1,2,4-oxadiazol-3-yl)-2,3-dihydro-1H-inden-1-yl)-1-(1-(methylcarbamoyl)azetidin-3-yl)-1H-pyrazole-4-carboxamide]
1.9 | 7.8 | CCc1nc(-c2ccc3c(c2)CC[C@H]3NC(=O)c2cnn(C3CN(C(N)=O)C3)c2)no1 [Compound 481, (R)-1-(1-carbamoylazetidin-3-yl)-N-(5-(5-ethyl-1,2,4-oxadiazol-3-yl)-2,3-dihydro-1H-inden-1-yl)-1H-pyrazole-4-carboxamide]

Source: patent US12065436B2, “Cardiac sarcomere inhibitors” (Cytokinetics, Inc., priority 2018, dated 2024)
